Among the data in patent US20240217978A1 (CHONG KUN DANG PHARMACEUTICAL CORP., priority 2021, published 2024) are IC50 values, retold here.

pIC50: −log10 of the molar value.

Chain of human adenosine A2a receptor (P29274 whole entry): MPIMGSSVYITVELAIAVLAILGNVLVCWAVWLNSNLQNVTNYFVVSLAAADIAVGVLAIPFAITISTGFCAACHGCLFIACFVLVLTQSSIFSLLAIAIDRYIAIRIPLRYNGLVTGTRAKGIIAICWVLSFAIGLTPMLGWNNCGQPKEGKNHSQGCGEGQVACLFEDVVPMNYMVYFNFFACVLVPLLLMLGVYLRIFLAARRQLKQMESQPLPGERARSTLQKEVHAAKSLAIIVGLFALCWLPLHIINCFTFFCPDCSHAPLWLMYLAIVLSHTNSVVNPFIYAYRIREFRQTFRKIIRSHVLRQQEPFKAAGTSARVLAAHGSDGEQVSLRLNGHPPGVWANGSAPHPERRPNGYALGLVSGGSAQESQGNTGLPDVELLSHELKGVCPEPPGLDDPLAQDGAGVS

The target of this experiment is human adenosine A2a receptor (Homo sapiens (Human), UniProt P29274). Kind of experiment: A2a receptor binding affinity, [3H]-NECA radioligand binding test. The following applies: [3H]-NECA 37 nM; membrane from HEK-293 cells transfected with human adenosine A2a receptor. An outline of the steps:
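IC50 values (μM) come from displacement of [3H]-NECA, used at 37 nM final, on human A2a receptor membranes from transfected HEK-293 cells. Incubation lasted one hour at room temperature in Tris/MgCl2/EDTA buffer, pH 7.4; filter-bound radioactivity was counted by scintillation.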
`Nc1nc(N2CCC[C@H]2C(=O)N2CCC3(CC2)CN(Cc2ccc(F)cc2F)C3)nc2nc(-c3ccco3)nn12` [Example 52, (S)-(1-(7-amino-2-(furan-2-yl)-[1,2,4]triazolo[1,5-a][1,3,5]triazin-5-yl)pyrrolidin-2-yl)(2-(2,4-difluorobenzyl)-2,7-diazaspiro[3.5]nonan-7-yl)methanone] had a pIC50 of 7.80.

Take `CCOC[C@H](Nc1nc(N)n2nc(-c3ccco3)nc2n1)C(=O)N1CCN(CC(F)(F)F)CC1` [Example 308, (S)-2-((7-amino-2-(furan-2-yl)-[1,2,4]triazolo[1,5-a][1,3,5]triazin-5-yl)amino)-3-ethoxy-1-(4-(2,2,2-trifluoroethyl)piperazin-1-yl)propan-1-one]: the pIC50 was 7.89.

For the molecule `CC(C)(O)CC(=O)N1CCN(C(=O)[C@@H](Nc2nc(N)n3nc(-c4ccco4)nc3n2)C2CC2)CC1` [Example 370, (S)-1-(4-(2-((7-amino-2-(furan-2-yl)-[1,2,4]triazolo[1,5-a][1,3,5]triazin-5-yl)amino)-2-cyclopropylacetyl)piperazin-1-yl)-3-hydroxy-3-methylbutan-1-one], the pIC50 is 8.40.

On to `CCCCN1CCC(C2CCN(C(=O)[C@@H]3CCN3c3cc4nc(-c5ccco5)nn4c(N)n3)CC2)CC1` [Example 383, (S)-(1-(5-amino-2-(furan-2-yl)-[1,2,4]triazolo[1,5-c]pyrimidin-7-yl)azetidin-2-yl)(1′-butyl-[4,4′-bipiperidin]-1-yl)methanone], for which the pIC50 is 8.70.

Molecule `CCCCN1CCN(C(=O)[C@@H]2CCN2c2nc(N)n3nc(-c4ccc(C)o4)nc3n2)CC1` [Example 222, (S)-(1-(7-amino-2-(5-methylfuran-2-yl)-[1,2,4]triazolo[1,5-a][1,3,5]triazin-5-yl)azetidin-2-yl)(4-butylpiperazin-1-yl)methanone] gave a pIC50 of 8.10.

Turning to `Nc1nc(N2CCC[C@H]2C(=O)N2CCN(CC3(C(F)(F)F)CCCCC3)CC2)nc2nc(-c3ccco3)nn12` [Example 285], the pIC50 is 9.70.

`CCCCN1CCN(C(=O)[C@@H](Nc2nc(N)n3nc(-c4ccco4)nc3n2)C2CCCC2)CC1` [Example 178, (S)-2-((7-amino-2-(furan-2-yl)-[1,2,4]triazolo[1,5-a][1,3,5]triazin-5-yl)amino)-1-(4-butylpiperazin-1-yl)-2-cyclopentylethan-1-one] showed a pIC50 of 8.00.

The molecule `Nc1nc(N2CCC[C@H]2C(=O)N2CCN(CC3(C(F)(F)F)CC3)CC2)nc2nc(-c3ccco3)nn12` [Example 283, (S)-(1-(7-amino-2-(furan-2-yl)-[1,2,4]triazolo[1,5-a][1,3,5]triazin-5-yl)pyrrolidin-2-yl)(4-((1-(trifluoromethyl)cyclopropyl)methyl)piperazin-1-yl)methanone] had a pIC50 of 7.92.

Consider `Nc1nc(N2CCC[C@H]2C(=O)N2CC3(CN(CC(F)(F)F)C3)C2)nc2nc(-c3ccco3)nn12` [Example 345, (S)-(1-(7-amino-2-(furan-2-yl)-[1,2,4]triazolo[1,5-a][1,3,5]triazin-5-yl)pyrrolidin-2-yl)(6-(2,2,2-trifluoroethyl)-2,6-diazaspiro[3.3]heptan-2-yl)methanone], for which the negative-log IC50 (pIC50) was 7.89.

`Nc1nc(N2CCC[C@H]2C(=O)N2CCN(c3nccs3)CC2)nc2nc(-c3ccco3)nn12` [Example 125, 2-(4-((7-amino-2-(furan-2-yl)-[1,2,4]triazolo[1,5-a][1,3,5]triazin-5-yl)-L-prolyl)piperazin-1-yl)thiazole] showed a pIC50 of 8.05.

The molecule `CC(c1ccccc1)N1CCN(C(=O)[C@@H]2CCCN2c2nc(N)n3nc(-c4ccco4)nc3n2)CC1` (stereo partly shown) [Example 66] showed a pIC50 of 8.15.

On to `C[C@@H]1CN(CC(F)F)CCN1C(=O)[C@@H]1CCCN1c1nc(N)n2nc(-c3ccco3)nc2n1` [Example 371, ((S)-1-(7-amino-2-(furan-2-yl)-[1,2,4]triazolo[1,5-a][1,3,5]triazin-5-yl)pyrrolidin-2-yl)((R)-4-(2,2-difluoroethyl)-2-methylpiperazin-1-yl)methanone], for which the pIC50 is 7.96.

In turn, `Nc1nc(N2CCC[C@H]2C(=O)N2CCC(N3CC(F)(F)C3)CC2)cc2nc(-c3ccco3)nn12` [Example 400, (S)-(1-(5-amino-2-(furan-2-yl)-[1,2,4]triazolo[1,5-c]pyrimidin-7-yl)pyrrolidine-2-yl)(4-(3,3-difluoroazetidin-1-yl)piperidin-1-yl)methanone] had a pIC50 of 7.85.

The molecule `CC1CN(C(=O)[C@@H]2CCCN2c2nc(N)n3nc(-c4ccco4)nc3n2)CC(C)N1Cc1ccc(F)cc1F` (stereo partly drawn) [Example 49, ((S)-1-(7-amino-2-(furan-2-yl)-[1,2,4]triazolo[1,5-a][1,3,5]triazin-5-yl)pyrrolidin-2-yl)(4-(2,4-difluorobenzyl)-3,5-dimethylpiperazin-1-yl)methanone] showed a pIC50 of 8.52.

`Nc1nc(N2CCCN2C(=O)N2CCN(CC(F)(F)F)CC2)nc2nc(-c3ccco3)nn12` [Example 353, (2-(7-amino-2-(furan-2-yl)-[1,2,4]triazolo[1,5-a][1,3,5]triazin-5-yl)pyrazolidin-1-yl)(4-(2,2,2-trifluoroethyl)piperazin-1-yl)methanone] gave a pIC50 of 8.10.

`CC1CN(C(=O)[C@H](C)Nc2nc(N)n3nc(-c4ccco4)nc3n2)CC(C)N1C(=O)N1CCOCC1` (stereo partly drawn) [Example 129, (2S)-2-((7-amino-2-(furan-2-yl)-[1,2,4]triazolo[1,5-a][1,3,5]triazin-5-yl)amino)-1-(3,5-dimethyl-4-(morpholine-4-carbonyl)piperazin-1-yl)propan-1-one] had a pIC50 of 8.00.

`Nc1nc(N2CCC[C@H]2C(=O)N2CCC(C(=O)NCc3ccccc3)CC2)nc2nc(-c3ccco3)nn12` [Example 81, 1-((7-amino-2-(furan-2-yl)-[1,2,4]triazolo[1,5-a][1,3,5]triazin-5-yl)-L-prolyl)-N-benzylpiperidin-4-carboxamide] gave a pIC50 of 8.10.

In turn, `COCCN1CCN(C(=O)[C@@H]2CCCN2c2nc(N)n3nc(-c4ccc(C)o4)nc3n2)CC1` [Example 91, (S)-(1-(7-amino-2-(5-methylfuran-2-yl)-[1,2,4]triazolo[1,5-a][1,3,5]triazin-5-yl)pyrrolidin-2-yl)(4-(2-methoxyethyl)piperazin-1-yl)methanone] had a pIC50 of 8.15.

For `CC(C)(F)CN1CCN(C(=O)CNc2nc(N)n3nc(-c4ccco4)nc3n2)CC1` [Example 388, 2-((7-amino-2-(furan-2-yl)-[1,2,4]triazolo[1,5-a][1,3,5]triazin-5-yl)amino)-1-(4-(2-fluoro-2-methylpropyl)piperazin-1-yl)ethan-1-one], the negative-log IC50 (pIC50) was 8.05.

In turn, `Cc1ccc(-c2nc3nc(N4CC[C@H]4C(=O)N4CCN(C5CCCCC5)CC4)nc(N)n3n2)o1` [Example 219, (S)-(1-(7-amino-2-(5-methylfuran-2-yl)-[1,2,4]triazolo[1,5-a][1,3,5]triazin-5-yl)azetidin-2-yl)(4-cyclohexylpiperazin-1-yl)methanone] gave a negative logarithm of the IC50 (pIC50) of 8.52.

Regarding `Nc1nc(N2CCC[C@H]2C(=O)N2CCN(CC(F)F)CC2)nc2nc(-c3ccco3)nn12` [Example 223, (S)-(1-(7-amino-2-(furan-2-yl)-[1,2,4]triazolo[1,5-a][1,3,5]triazin-5-yl)pyrrolidin-2-yl)(4-(2,2-difluoroethyl)piperazin-1-yl)methanone], the pIC50 is 8.15.

Take `CC(C)[C@H](Nc1nc(N)n2nc(-c3ccco3)nc2n1)C(=O)N1CCN(CC(C)(C)F)CC1` [Example 59, (S)-2-((7-amino-2-(furan-2-yl)-[1,2,4]triazolo[1,5-a][1,3,5]triazin-5-yl)amino)-1-(4-(2-fluoro-2-methylpropyl)piperazin-1-yl)-3-methylbutan-1-one]: the pIC50 was 8.15.

The molecule `CC(F)(F)CN1CCN(C(=O)[C@@H]2CCN2c2nc(N)n3nc(-c4ccco4)nc3n2)CC1` [Example 253, (S)-(1-(7-amino-2-(furan-2-yl)-[1,2,4]triazolo[1,5-a][1,3,5]triazin-5-yl)azetidin-2-yl)(4-(2,2-difluoropropyl)piperazin-1-yl)methanone] showed a pIC50 of 8.15.

`Nc1nc(N2CCC[C@H]2C(=O)N2CCC(CN3CCC(C(F)(F)F)CC3)CC2)nc2nc(-c3ccco3)nn12` [Example 331, (S)-(1-(7-amino-2-(furan-2-yl)-[1,2,4]triazolo[1,5-a][1,3,5]triazin-5-yl)pyrrolidin-2-yl)(4-((4-(trifluoromethyl)piperidin-1-yl)methyl)piperidin-1-yl)methanone] had a pIC50 of 8.00.

Molecule `Cc1ccc(-c2nc3nc(N4CCC[C@H]4C(=O)N4CCN(CC(F)(F)F)CC4)nc(N)n3n2)o1` [Example 89, (S)-(1-(7-amino-2-(5-methylfuran-2-yl)-[1,2,4]triazolo[1,5-a][1,3,5]triazin-5-yl)pyrrolidin-2-yl)(4-(2,2,2-trifluoroethyl)piperazin-1-yl)methanone] gave a pIC50 of 7.77.

With `Nc1nc(N2CCC[C@H]2C(=O)N2CCN(CC3(C(F)(F)F)CCC3)CC2)nc2nc(-c3ccco3)nn12` [Example 284, (S)-(1-(7-amino-2-(furan-2-yl)-[1,2,4]triazolo[1,5-a][1,3,5]triazin-5-yl)pyrrolidin-2-yl)(4-((1-(trifluoromethyl)cyclobutyl)methyl)piperazin-1-yl)methanone], the pIC50 was 8.30.

`CC[C@H](Nc1nc(N)n2nc(-c3ccco3)nc2n1)C(=O)N1CCN(C(=O)CC(C)(C)O)CC1` [Example 368, (S)-1-(4-(2-((7-amino-2-(furan-2-yl)-[1,2,4]triazolo[1,5-a][1,3,5]triazin-5-yl)amino)butanoyl)piperazin-1-yl)-3-hydroxy-3-methylbutan-1-one]: the pIC50 was 8.52.

`CC[C@H](Nc1nc(N)n2nc(-c3ccco3)nc2n1)C(=O)N1CCN(CC(C)(F)F)CC1` [Example 356, (S)-2-((7-amino-2-(furan-2-yl)-[1,2,4]triazolo[1,5-a][1,3,5]triazin-5-yl)amino)-1-(4-(2,2-difluoropropyl)piperazin-1-yl)butan-1-one]: the pIC50 was 8.00.

What is called pIC50 is −log10 of the IC50, conventionally taken in molar units. Low readings indicate a high IC50, high ones a low IC50.
